# Source: patent US20240270658A1, “Use of an N-Functionalized Alkoxy Pyrazole Compound as Nitrification Inhibitor” (BASF SE, priority 2021, published 2024)
# Assays:
# [1] = tested on: nitrification (soil Limburgerhof, microbial biomass); assay: Inhibition of nitrification in soil incubation (NH4-N recovery and NO3-N formation); conditions: 14 days after treatment, 20° C.
# Protocol: The soil is incubated at 20° C. for two weeks prior to the experiments to activate the microbial biomass. 1 ml test solution, containing the compounds of formula I in the appropriate concentration (usually 0.3 or 1% (w/w) of fertilized NH4—N), and 10 mg nitrogen in the form of ammoniumsulfate-N(NH4—N) is added to the soil and everything mixed well. Unfertilized controls received 1 ml pure water. Bottles are capped but loosely to allow air exchange. The bottles are then incubated at 20° C. for 0 and 14 days. For analysis, 300 ml of a 1% K2SO4-solution is added to the bottle containing the soil and shaken for 2 hours in a horizontal shaker at 150 rpm. Then the whole solution is filtered through a filter (Macherey-Nagel Filter MN 807%). Ammonium and nitrate content is then analyzed in the filtrate using an autoanalyzer. Ammonium was quantified via an indophenol blue dye at 660 nm, and nitrate via an azo dye at 540 nm. The nitrification inhibition is expressed as % of NH4—N recovery from fertilized NH4—N (100%) after subtraction of unfertilized control soil, and as % inhibition of NO3—N formation (% reduction of NO3^− production) according to the formula: [formula]
# [2] = tested on: nitrification (soil Limburgerhof, microbial biomass); assay: Comparison of % NH4-N recovery in soil incubation, data pooled from different trials; conditions: average pooled from different trials
# Protocol: Examples 2 and 3 were further tested with regard to Comparative Example 1 in terms of the % NH4—N recovery. 100 g Soil (soil Limburgerhof with pH(CaCl2) 6.8; 73% sand, 23% silt, 4% clay, which is classified according to FAO as a sandy loam) is filled into 500 ml plastic bottles and is moistened to 50% water holding capacity. The soil is incubated at 20° C. for two weeks prior to the experiments to activate the microbial biomass. 1 ml Test solution, containing the compounds of formula I or the comparative example in the appropriate concentration (0.3 or 1% (w/w) of fertilized NH4—N), and 10 mg nitrogen in the form of ammoniumsulfate-N(NH4—N) is added to the soil and everything mixed well. Unfertilized controls received 1 ml pure water. Bottles are capped but loosely to allow air exchange. The bottles are then incubated at 20° C. for 14 days. For analysis, 300 ml of a 1% K2SO4-solution is added to the bottle containing the soil and shaken for 2 hours in a horizontal shaker at 150 rpm. Then the whole solution is filtered through a filter (Macherey-Nagel Filter MN 807%). Ammonium content is then analyzed in the filtrate using an autoanalyzer. Ammonium was quantified via an indophenol blue dye at 660 nm. The nitrification inhibition is expressed as % of NH4—N recovery from fertilized NH4—N (100%) after subtraction of unfertilized control soil. For comparison of the % NH4—N recovery of the compounds of the invention, i.e. Examples 2 and 3, with comparative example 1 as shown below from different trials, the standard deviation of a common treatment of all trials with DMPP (3,4-dimethylpyrazole phosphate) was calculated. Based on this calculation the data from different trials can be pooled together to calculate an average % NH4—N recovery for the compounds of the invention and the comparative compound as shown below.
# [3] = Stability (recovery experiment) of nitrification inhibitor on treated fertilizer granules; assay type: physicochemical; conditions: dose NI 1 % NH4N; for NI on fertilizer granules [%] after storage 4 weeks 20° C.: open beaker, 50% rH; for NI on fertilizer granules [%] initial: sample stored at -18° C.
# Protocol: Examples 2 and 3 were further tested with regard to Comparative Example 1 in terms of their stability (recovery experiment)
# Ammonium Sulphate Nitrate (ASN) fertilizer granules and Diammonium phosphate (DAP) fertilizer granules were treated with liquid preparations of the Nitrification Inhibitor (NI) of example 2 and 3 and Comparative Example 1.
# For the recovery experiment, a small amount (˜10g) of each treated fertilizer sample was filled into a closed glass vial and stored at −18° C. Another 250 g of each treated fertilizer sample were filled into an open glass beaker and stored at 20° C. and 50% relative humidity (rH). After four weeks of storage, 50g of the samples stored at 20° C. and 50% rH were drawn from the bottom and analyzed by HPCL for NI content in comparison to the −18° C. sample. The recovery is given in % as ratio of the NI content of the 20° C. sample divided by the NI content of the −18° C. sample.
# [4] = Volatility of prior-art nitrification inhibitor; assay type: physicochemical; conditions: statement in words on the prior-art compound
# Source text: Sharma et al. (J P Sharma, H K Taneja, S S Tomar Pesticide Research Journal, 2006, 18(1), 7-11) inter alia discloses 3-ethoxy-5-methylpyrazole as nitrification inhibitor.
# [5] = applied dose 0.3 wt.-% relative to NH4-N
# [6] = applied dose 1.0 wt.-% relative to NH4-N
SMILES,"average inhibition % of NO3 DAT14 (n = 4) [1, 5] [%]","average recovery % NH4-N DAT14 (n = 4) [1, 5] [%]","average inhibition % of NO3 DAT14 (n = 4) [1, 6] [%]","average recovery % NH4-N DAT14 (n = 4) [1, 6] [%]",% NH4-N recovery after 14 days ([2]; 0.3 wt.-% relative to NH4-N) [%],% NH4-N recovery after 14 days ([2]; 1 wt.-% relative to NH4-N) [%],NI on fertilizer granules [%] after storage 4 weeks 20° C. ([3]; ASN fertilizer granules) [%],NI on fertilizer granules [%] initial ([3]; ASN fertilizer granules) [%],NI on fertilizer granules [%] after storage 4 weeks 20° C. ([3]; DAP fertilizer granules) [%],NI on fertilizer granules [%] initial ([3]; DAP fertilizer granules) [%],volatility [4]
CCCCCCCOC(=O)n1nc(C)cc1OC [Example 1],44,40,82,68,,,,,,,
"CCOc1cc(C)nn1CO [Comparative Example 1, reference compound]",,,,,36,46,0.000,0.034,0.057,0.110,
CCOc1cc(C)[nH]n1 [3-ethoxy-5-methylpyrazole],,,,,,,,,,,high volatility
CCCCCCCOC(=O)n1nc(OC)cc1C [Example 2],60,55,89,66,47,58,,,0.015,0.023,
COc1cc(C)n(C(=O)c2cccc(F)c2)n1 [Example 5],20,25,50,39,,,,,,,
COc1cc(C)n(C(=O)C2CCOCC2)n1 [Example 4],33,40,82,66,,,,,,,
CCOC(=O)CC(=O)n1nc(OC)cc1C [Example 3],60,49,90,71,41,64,0.113,0.116,0.044,0.052,
